The values below come from patent US8507756B2, “Plant protection” (Plant Bioscience Limited, priority 2007, dated 2013).

The structures appear in SMILES notation.

In the assay the test system is Myzus persicae. Nature of the assay: JA or MeJA seed treatment, tomato plants challenged with aphids. Type of assay: in vivo. The note with it: tomato cv. Carousel; seed treatment 3.0 mM MeJA; challenged 10 weeks after seed treatment; 12 days feeding. The procedure:
Tomato, pepper, maize and wheat seeds were treated with 3 mM JA or 1.5 mM JA solutions or with 3 mM methyl jasmonate (MeJA) or with deionised water containing 42.8 mM ethanol (control) by full submersion of up to 40 seeds in a Petri dish of solution wrapped in foil for a period of 24 hours at 4° C. in a fridge. A temperature of 4° C. was used both to prevent degradation of the jasmonic acid solutions and to prevent germination of the seeds. The seeds were then removed from the treatment solution and washed in 1 liter of deionised water for 5 minutes to remove the JA or MeJA coating the outside of the seeds. Tomato seeds were sown in rockwool blocks and grown on peat-based compost in glass houses at 12° C.-28° C. under artificial light on a 16 hour light and 8 hour dark cycle for 48, 56 or 70 days. Tomato plants were then challenged with Tetranychus urticae (two-spotted spider mite) which were allowed to feed for 9 days, Manduca sexta (tobacco hornworm) caterpillars which were allowed to feed for 4 days or Myzus persicae (aphid), which were allowed to feed for 10 or 12 days. In each case these organisms were restricted to the plant on which they had originally been placed. Pepper plants were challenged with Myzus persicae (aphid), which were allowed to feed for 2 weeks. Maize and wheat plants were challenged with Spodoptera […] caterpillars which were allowed to feed for 2 days (maize) or 3 days (wheat). The effect of Myzus persicae on plants was determined by counting the aphid population on each plant under a dissecting microscope at ×10 magnification. Seeds of a UK commercial F1 hybrid tomato variety (cv. Carousel) were treated with 3.0 mM jasmonic acid (JA) and 42.8 mM ethanol in deionised H2O for a period of 24 hours at 4° C. in the dark. […] Aphids were allowed to feed on the plants for twelve days and the aphid population was measured at intervals over this period. […]

Turning to `CC/C=C\CC1C(=O)CCC1CC(=O)OC` (stereo not shown) [MeJA, jasmonic acid methyl ester], the “Aphid population compared with control plants” value is on record as “significant (p<0.05) reduction”.
